Reference: PubChem BioAssay (NCI)
“And” between values parts separate entries of the source, which are not always exact repeats. Identical values can stand only once.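 Assay format: 96-well plates, 48-hour exposure. GI50 is the concentration that inhibits growth by half. The concentration for full growth arrest is given as TGI.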

System: MDA-MB-468 breast
Experiment: NCI-60 cell line screen, 48 h

Row | SMILES | GI50 | TGI
1 | COc1ccc2[nH]c(O)c(/C=c3/ccc4c(c3)N=C(c3ccc(F)cc3)N=4)c2c1 | 4140 nM | 22.3 µM
2 | CNCCCn1c2c(c3ccc(F)cc3c1=O)C(=O)c1cc(OC)cnc1-2 | 220 nM | 0.66 µM
3 | O=C(c1ccccc1O)c1[nH]c(Cl)c(Cl)c1-n1c(C(=O)c2ccccc2O)cc(Cl)c1Cl | 436 nM and 339 nM | 6.53 µM and 10.4 µM
4 | COc1cc(C2C3=C(COC3=O)Nc3cc4c(cc32)OCO4)cc2c1OCO2 (configuration not stated) | 55.9 nM | 0.242 µM
5 | CCN1C(=O)N(CC)C2C1NN=c1s/c(=C\c3cccc([N+](=O)[O-])c3)c(=O)n12 (configuration not stated) | 375 nM | > 100 µM
6 | COc1ccc(C(=O)OC2C(OC3C(O)COC(O[C@H]4C[C@H]5[C@@H]6CC=C7C[C@@H](O)CC[C@]7(C)[C@H]6CC[C@]5(C)[C@H]4[C@H](C)C(=O)CCC(C)C)C3OC(C)=O)OCC(O)C2O)cc1 (some centres not stated) | 6.66 nM | 1.53 µM
7 | O=C(COc1ccc(-c2nc3cc(Cl)c(Cl)cc3[nH]2)cc1)N=Nc1c(O)[nH]c2ccccc12 | 2600 nM | 6.23 µM
8 | CN1CCN(c2ccc(C(=O)Nc3cccc(C#Cc4cccc5[nH]nc(N)c45)c3)cc2C(F)(F)F)CC1 | 821 nM | 2.39 µM
9 | CC1(C)CC(=O)c2c(ccc(C(=O)C[C@@H](N)CO)c2N)O1 | 561 nM | 6.88 µM
10 | COc1ccc(Oc2cc(NCCC(F)(F)F)c3ncc(-c4ccc(C(=O)NC5CC5)c(C)c4)n3n2)c(F)c1F | 3650 nM | > 100 µM
11 | Cc1cc(O)cc(C)c1/C=C/c1cncc(C(=O)OC(C)(C)C)c1 | 8410 nM | > 25 µM
12 | O=C(Nc1cccc(-n2cc(-c3ccncc3)c(-c3ccc(O)c(Cl)c3)n2)c1)c1ccc(Cl)c(Cl)c1 | 16200 nM | > 100 µM
13 | COc1cc(NC(C)CCCN)c2ncccc2c1Sc1ccc(Cl)cc1 (configuration not stated) | 1700 nM | 3.11 µM
14 | FC(F)(F)c1[nH]ncc1-c1nc2ccc3[nH]ncc3c2c2c1CCCC2 | 1860 nM | 4.67 µM
15 | CC1(C)N=C(N)N=C(N)N1c1ccc(Cl)c(Cl)c1 | 337 nM | > 57.5 µM
16 | CN(C)c1ccc(/C=N/NC(=O)c2cccc3ccccc23)c(Cl)c1 | 311 nM | 2.57 µM
17 | C[C@]12CC[C@@H]3c4ccc(O)cc4CC[C@H]3[C@@H]1CC[C@@H]2NS(=O)(=O)c1ccc2ccccc2c1 | 3620 nM | 15.2 µM
18 | CC(=O)/C(=C\c1c(-c2ccccc2)[nH]c2ccccc12)S(=O)(=O)c1ccccc1 | 987 nM | 14.8 µM
19 | COC(=O)/C(=C\c1c(-c2ccccc2)[nH]c2ccccc12)S(C)(=O)=O | 5400 nM | 84.8 µM
20 | Brc1ccc2[nH]cc(-c3nn4cc(-c5nccs5)nc4s3)c2c1 | 3260 nM | 18.3 µM
21 | COc1ccc2nccc(/C=C/c3ccnc4ccc(OC)cc34)c2c1 | > 100000 nM | > 100 µM

Row | SMILES | GI50 | TGI
22 | CC(=O)c1ccc2c(c1)N(CCCN(C)C)c1ccccc1S2 | 10400 nM | 22.8 µM
23 | Cc1cc2c(cc1C)[n+](Cc1ccc3ccccc3n1)cn2Cc1ccc2ccccc2n1 | 444 nM | 1.95 µM
24 | COc1ccc(/C=N\NC(=O)c2ccc3nc(-c4ccc(Br)cc4)[nH]c3c2)cc1 | 2750 nM | 5.97 µM
25 | Clc1ccc(N2CCC(N3CCCC3)CC2)cc1-c1nc2ccccc2[nH]1 | 12100 nM | 26.3 µM
26 | COc1ccc(/C(=N/O)c2cc(OC)c(OC)c(OC)c2)c(OC)c1N | 3540 nM | > 100 µM
27 | CN(C)c1ccc(C(=C2C=CC(=[N+](C)C)C=C2)c2ccccc2Cl)cc1 | 220 nM | 0.655 µM
28 | CN(C)CCOc1ccc(-c2cc(-c3ccc4c(c3)CC/C4=N\O)c(-c3ccncc3)o2)cc1 | 2800 nM | 6.17 µM
29 | COC(=O)[C@@H](OC)[C@@H]1Cc2cc3cc(OC4CC(OC5CC(O)C(O)C(C)O5)C(O)C(C)O4)c(C)c(O)c3c(O)c2C(=O)[C@H]1OC1CC(OC2CC(OC3CC(C)(O)C(O)C(C)O3)C(O)C(C)O2)C(O)C(C)O1 (some centres not stated) | 28.3 nM | 0.0713 µM
30 | N=C(N)SCc1ccc([N+](=O)[O-])cc1[N+](=O)[O-] | 2520 nM | 8.55 µM
31 | Cc1ncc(-c2ccnc(Nc3ccc(S(C)(=O)=O)cc3)n2)n1C(C)C | 1120 nM | 2.93 µM
32 | Oc1ccccc1C=Nc1ccccc1N=Cc1ccccc1O.[Cu+2] | 1730 nM | 13.5 µM
33 | COc1ccc(-c2nc(-c3nc4ccc(C(F)(F)F)cc4[nH]3)c3ccccn23)cc1 | 13400 nM | > 100 µM
34 | CNC(=O)c1cc2c(Oc3ccc(NC(=S)NC(=O)Cc4ccccc4)cc3F)ccnc2cc1OC | > 29900 nM | > 100 µM
35 | CCN(Cc1cccc(F)c1F)c1ccc(CO)c(Cl)c1 | < 12.5 nM | 0.035 µM
36 | Oc1c(CNCCNCc2cc(Cl)cc(Cc3ccccc3)c2O)cc(Cl)cc1Cc1ccccc1 | 307 nM | 4.43 µM
37 | O=Nc1c(O)c2ccccc2c2ccccc12 | 1810 nM | 3.73 µM
38 | CCCCCSC1C2C(=O)C(Br)=CC13CCNc1c(O)c4c5c(c13)=[N+]2CCC=5C=N4 (configuration not stated) | 390 nM | 1.09 µM
39 | Cn1c2ccccc2c2nnc(NNCc3ccccn3)nc21 | 268 nM | 1.16 µM
40 | CSc1nc(N)c2c(n1)NC(c1ccccc1)C1CCc3ccccc3C1=N2 (configuration not stated) | 84400 nM | > 100 µM
41 | CC/C=C\C[C@H](O)C/C=C1/C(=O)C=C[C@@H]1C/C=C\CCCC(=O)NC | 940 nM | 2.51 µM
